Converted amounts (≈) assume the structure as drawn. “And” between values parts separate entries of the source, which are not always exact repeats. Identical values can stand only once.
Tests used:
[1] = DNDI: Solubility in 0.01M HCl at pH 2 determined by nephelometry
[2] = DNDI: Solubility in phosphate buffer at pH 6.5 determined by nephelometry
in vitro [3] = conditions: human, microsomes
[4] = DNDI: pKa; format: physicochemical; conditions: read-out: pKa(1)
[5] = DNDI: Lipophilicity (eLogD) at pH 7.4; format: physicochemical; conditions: buffer
[6] = (§1) DNDI: Stability, 4 hour; format: ADME, tissue-based; conditions: blood
[7] = as §1; format: ADME, cell-free, Canis lupus familiaris; conditions: dog, plasma
[8] = DNDI: Lipophilicity (eLogD) at pH 5; format: physicochemical; conditions: buffer
[9] = DNDI: Solubility, 24 hour, 50 mM phosphate - pH 7.4, 37C; format: physicochemical; conditions: 50 mM phosphate buffer, read-out: Equilibrium
Trypanosoma cruzi [10] = test: (§2) DNDI: Chagas in Vitro; format: functional, organism-based, Tulahuen C4 (LacZ)
in vitro [11] = conditions: mouse, microsomes
[12] = DNDI: Solubility, 24 hour, 50 mM Phosphate - pH 2, 37C; format: physicochemical; conditions: 50 mM phosphate buffer, read-out: Equilibrium
Trypanosoma cruzi [13] = test: as §2; format: functional, Tulahuen C4 (LacZ)
[14] = (§3) DNDI: Metabolism; format: ADME, Microsome; conditions: rat, microsomes
[15] = DNDI: Solubility, 24 hour, 20 mM Citrate - pH 3, 37C; format: physicochemical; conditions: 20 mM citrate buffer, read-out: Equilibrium
[16] = DNDI: Solubility, 24 hour, SGF, 37C; format: physicochemical; conditions: read-out: Equilibrium
[17] = DNDI: Lipophilicity (gLogD) at pH 3; conditions: buffer, pH 3
in vitro [18] = conditions: human, microsomes; remark: listed apart in the source
[19] = DNDI: Protein binding in rat plasma; format: ADME, cell-free; conditions: read-out: % bound
[20] = DNDI: Protein binding in human liver microsomes; format: ADME, Microsome; conditions: read-out: % bound (converted)
[21] = DNDI: Protein binding in dog plasma; format: ADME, cell-free, Canis lupus familiaris; conditions: read-out: % bound
Leishmania donovani = test: DNDI: Inhibition of formation of Leishmania donovani; format: functional, MHOM/ET/67/L82; parameters: concentration or dose not given beside the values
[22] = DNDI: Protein binding in human plasma; format: ADME, cell-free; conditions: read-out: % bound
[23] = DNDI: Cytotoxicity against L-6 rat myoblasts from skeletal musclE; conditions: L6 rat skeletal muscle myoblasts, IC50
[24] = DNDI: Solubility, 24 hour, FaSSIF, 37C; format: physicochemical; conditions: read-out: Equilibrium
[25] = DNDI: Lipophilicity in water; format: physicochemical
[26] = DNDI: Lipophilicity (gLogD) at pH 7.4; conditions: buffer, pH 7.4
[27] = as §3; format: ADME, Canis lupus familiaris, Microsome; conditions: dog, microsomes
[28] = DNDI: Protein binding 10% serum RPMI; format: ADME; conditions: RPMI medium with 10% serum; read-out: % bound (converted)
[29] = DNDI: Solubility, 24 hour, FeSSIF, 37C; format: physicochemical; conditions: read-out: Equilibrium
Cytochrome P450 2D6 = Cytochrome P450 2D6 (Homo sapiens, UniProt P10635); test: (§4) DNDI: CYP Inhibition; format: ADME
Cytochrome P450 1A2 = target: T1, Cytochrome P450 1A2 (Homo sapiens, UniProt P05177); test: as §4; format: ADME
T1 sequence (P05177 whole entry): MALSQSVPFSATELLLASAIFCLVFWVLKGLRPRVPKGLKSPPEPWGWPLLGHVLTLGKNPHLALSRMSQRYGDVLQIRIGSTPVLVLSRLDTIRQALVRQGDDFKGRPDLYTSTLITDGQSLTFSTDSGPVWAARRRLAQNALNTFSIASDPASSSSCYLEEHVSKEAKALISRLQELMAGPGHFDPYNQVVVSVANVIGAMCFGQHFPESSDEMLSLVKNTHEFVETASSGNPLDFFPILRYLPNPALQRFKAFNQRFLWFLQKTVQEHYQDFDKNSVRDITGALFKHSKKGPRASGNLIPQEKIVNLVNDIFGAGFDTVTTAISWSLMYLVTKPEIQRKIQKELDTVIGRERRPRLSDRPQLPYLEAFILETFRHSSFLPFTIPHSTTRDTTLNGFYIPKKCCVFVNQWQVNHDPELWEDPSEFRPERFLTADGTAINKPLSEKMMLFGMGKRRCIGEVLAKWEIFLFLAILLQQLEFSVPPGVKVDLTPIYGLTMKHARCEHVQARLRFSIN

[30] = DNDI: Protein binding in mouse plasma; format: ADME, cell-free; conditions: read-out: % bound
in vitro [31] = conditions: mouse, microsomes; remark: listed apart in the source
[32] = as §1; format: ADME, tissue-based, Canis lupus familiaris; conditions: dog, blood
[33] = as §1; format: ADME, cell-free; conditions: plasma

Cytochrome P450 2D6, sequence (P10635 whole entry): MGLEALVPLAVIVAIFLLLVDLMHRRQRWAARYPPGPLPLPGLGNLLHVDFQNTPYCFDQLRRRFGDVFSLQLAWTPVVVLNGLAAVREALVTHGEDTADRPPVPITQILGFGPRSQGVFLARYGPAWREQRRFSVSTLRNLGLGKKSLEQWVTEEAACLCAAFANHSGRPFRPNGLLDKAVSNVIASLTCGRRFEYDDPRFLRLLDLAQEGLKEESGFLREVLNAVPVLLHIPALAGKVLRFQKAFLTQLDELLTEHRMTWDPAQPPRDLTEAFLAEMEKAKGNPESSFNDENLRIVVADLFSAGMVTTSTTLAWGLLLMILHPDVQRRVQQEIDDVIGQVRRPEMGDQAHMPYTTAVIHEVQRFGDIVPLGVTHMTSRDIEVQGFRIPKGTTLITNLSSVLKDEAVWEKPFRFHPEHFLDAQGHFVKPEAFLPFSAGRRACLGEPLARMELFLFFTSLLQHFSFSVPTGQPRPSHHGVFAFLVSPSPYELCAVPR

## FC(F)(F)c1ccc(N(c2cccnc2)C2CCN(c3ccc(C(F)(F)F)cn3)CC2)cc1
[1]
  solubility kinetic: > 100 µg/mL
[2]
  solubility kinetic: < 1.6 µg/mL
In vitro [3]
  microsomal CLint: 39 µL/min/mg
[4]
  pKa: 2.41
[5]
  chromatographic logD: > 6.05
[6]; human
  remaining at 4 h: 101%
[6]; rat
  remaining at 4 h: 115%
[7]
  remaining at 4 h: 102%
[8]
  chromatographic logD: > 6.07
[9]
  solubility thermodynamic at 24 h: < 0.25 µg/mL
Trypanosoma cruzi [10]
  IC50: 17 nM
Trypanosoma cruzi [10]; Trypanosoma cruzi, Tulahuen C4 (LacZ)
  IC50: 14 nM
In vitro [11]
  half-life: 1.17 h
[12]
  solubility thermodynamic at 24 h: 1430 µg/mL (≈ 3070 µM)
Trypanosoma cruzi [13]
  IC90: 31 nM and 25 nM
[14]
  half-life: 1.92 h
  microsomal CLint: 15 µL/min/mg
[15]
  solubility thermodynamic at 24 h: 53.1 µg/mL (≈ 114 µM)
[16]
  solubility thermodynamic at 24 h: 9680 µg/mL (≈ 20800 µM)
[17]
  chromatographic logD: 5
In vitro [18]
  half-life: 0.75 h
[19]
  fraction unbound: < 0.001
[20]
  fraction unbound: 0.002
[21]
  fraction unbound: 0.01
Leishmania donovani
  % inhibition: 37.9%
[22]
  fraction unbound: < 0.001
[23]
  IC50: > 100000 nM
[24]
  solubility thermodynamic at 24 h: < 0.25 µg/mL
[25]
  logD: > 5.95
[26]
  chromatographic logD: > 5.3
[27]
  half-life: 1.22 h
  microsomal CLint: 24 µL/min/mg
[28]
  fraction unbound: 0.004
[29]
  solubility thermodynamic at 24 h: 12.7 µg/mL (≈ 27.2 µM)
Cytochrome P450 2D6
  IC50: > 20000 nM
Cytochrome P450 1A2
  IC50: > 20000 nM
[30]
  fraction unbound: < 0.001
In vitro [31]
  microsomal CLint: 25 µL/min/mg
[32]
  remaining at 4 h: 108%
[33]; human
  remaining at 4 h: 97%
[33]; rat
  remaining at 4 h: 96%
